What was measured:
[1] = target: T1, Dihydrofolate reductase (Bos taurus, UniProt P00376); assay: Inhibition of bovine liver DHFR
T1 sequence (P00376 whole entry): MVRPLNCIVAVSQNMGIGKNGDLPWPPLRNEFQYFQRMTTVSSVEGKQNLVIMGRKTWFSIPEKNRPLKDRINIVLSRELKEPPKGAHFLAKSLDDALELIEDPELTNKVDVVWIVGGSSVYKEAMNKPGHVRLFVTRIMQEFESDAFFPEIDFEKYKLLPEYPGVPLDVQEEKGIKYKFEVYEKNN

[2] = system: Staphylococcus aureus; assay: Antimicrobial activity against Staphylococcus aureus assessed as inhibition zone at 200 ug/disk after 24 hrs by disc-diffusion method; type: functional; details: read-out: IZ
[3] = system: Bacillus subtilis; assay: Antimicrobial activity against Bacillus subtilis assessed as inhibition zone at 200 ug/disk after 24 hrs by disc-diffusion method; type: functional; details: read-out: IZ
[4] = system: Escherichia coli; assay: Antimicrobial activity against Escherichia coli assessed as inhibition zone at 200 ug/disk after 24 hrs by disc-diffusion method; type: functional; details: read-out: IZ
[5] = system: Pseudomonas aeruginosa; assay: Antimicrobial activity against Pseudomonas aeruginosa assessed as inhibition zone at 200 ug/disk after 24 hrs by disc-diffusion method; type: functional; details: read-out: IZ
[6] = system: Candida albicans; assay: Antimicrobial activity against Candida albicans assessed as inhibition zone at 200 ug/disk after 24 hrs by disc-diffusion method; type: functional; details: read-out: IZ
[7] = Growth inhibition of human UO31 cells at 10 uM after 48 hrs; type: functional; details: UO-31, 48 h, read-out: GI
[8] = system: MCF7; assay: Growth inhibition of human MCF7 cells at 10 uM after 48 hrs; type: functional; details: MCF7, 48 h, read-out: GI
[9] = system: T47D; assay: Growth inhibition of human T47D cells at 10 uM after 48 hrs; type: functional; details: read-out: GI
[10] = system: HL-60(TB); assay: Growth inhibition of human HL-60(TB) cells at 10 uM after 48 hrs; type: functional; details: HL-60, 48 h, read-out: GI
[11] = system: SR; assay: Growth inhibition of human SR cells at 10 uM after 48 hrs; type: functional; details: read-out: GI
[12] = system: NCI-H522; assay: Growth inhibition of human NCI-H522 cells at 10 uM after 48 hrs; type: functional; details: NCI-H522, 48 h, read-out: GI

Row | SMILES | IC50 [1] | zone of inhibition at 200 µg/disc [2] | zone of inhibition at 200 µg/disc [3] | zone of inhibition at 200 µg/disc [4] | zone of inhibition at 200 µg/disc [5] | zone of inhibition at 200 µg/disc [6] | inhibition of growth at 10 µM [7] | inhibition of growth at 10 µM [8] | inhibition of growth at 10 µM [9] | inhibition of growth at 10 µM [10] | inhibition of growth at 10 µM [11] | inhibition of growth at 10 µM [12]
1 | Cc1nc(N)sc1Sc1nc2ccc(Cl)cc2c(=O)n1-c1ccccc1 | 5 µM | 8 mm | 8 mm | 8 mm | 8 mm | 8 mm | 32.6% | 18% | 14.3% |  |  | 
2 | Nc1nnc(Sc2nc3ccc(Cl)cc3c(=O)n2-c2ccc(Oc3ccccc3)cc2)s1 | 0.4 µM | 8 mm | 8 mm | 8 mm | 8 mm | 8 mm | 17% |  |  | 12% |  | 
3 | COc1cc2nc(Sc3sc(N)nc3C)n(-c3ccccc3)c(=O)c2cc1OC | 7 µM | 8 mm | 8 mm | 8 mm | 8 mm | 8 mm | 32.3% | 21.7% |  |  | 15% | 25.6%

From ChEMBL document CHEMBL3352542, “Synthesis, biological evaluation and molecular modeling study of 2-(1,3,4-thiadiazolyl-thio and 4-methyl-thiazolyl-thio)-quinazolin-4-ones as a new class of DHFR inhibitors” (Bioorg Med Chem Lett, 2014)
